This note sets out measurements from US10220019B2, “Method for treating pulmonary fibrosis comprising application of dimethylamino micheliolide” (Tianjin International Joint Academy of Biotechnology & …, priority 2016, dated 2019).

The test system of this data set is mouse pulmonary fibrosis model. Put plainly: Mouse pulmonary fibrosis model and pharmacodynamics test of ACT001. Type of data set: in vivo, Kunming mice (male). The protocol: a) Preparation of ACT001 solution: 1 g ACT001 powder was weighed and dissolved in 100 mL 0.9% normal saline solution to prepare 10 mg/mL solution. When it was fully dissolved, it was filter sterilized with 0.22 μm filter for use, and was freshly prepared each time before use. The preparation and the use of the solution should be performed in a sterile biosafety cabinet.
b) Preparation of ethyl viologen hydrate solution: 2 g ethyl viologen hydrate was weighed and dissolved in 100 mL 0.9% normal saline to prepare 20 mg/mL solution. When it was fully dissolved, it was filter sterilized with 0.22 μm filter for use, and was freshly prepared each time before each use. The preparation and the use of the solution should be performed in a sterile biosafety cabinet.
Randomly divide 36 mice into three groups: normal group, control group (pulmonary fibrosis model group), ACT001 group (administering ACT001 after modeling), and 12 animals per group. Conduct a one-off intragastric administration of 0.15 mL of 0.9% normal saline to each animal in the normal group; and conduct a one-off intragastric administration of 0.15 mL of the ethyl viologen hydrate solution to each animal in the control group and ACT001 group.
3 weeks after modeling, drug treatment was given to the mice. Conduct an intragastric administration of 0.1 mL of 0.9% normal saline to each animal in the normal and control groups, and conduct an intragastric administration of 0.1 mL ACT001 aqueous solution to each animal in the ACT001 group. Once every 2 days.
At the third week after modeling, the second week after drug administration, and the third week after drug administration, four mice were each taken from the normal group, control group and ACT001 group, sacrificed by breaking their necks, their lung tissues were sampled, after fixing the tissues with 10% formalin for two days, the fixing solution on the surface of the lung tissues was washed away with running water, the lung tissues were then dehydrated with a pathological tissue dehydration machine, the tissues were embed in paraffin, the embedded tissues were sectioned, H.E. staining was conducted and slides were covered before observing the changes of the lung tissues under microscope.

[1] abbreviates: after 3 weeks of drug administration.
[2] abbreviates: second week after ACT001 administration, intragastric 0.1 mL once every 2 days.

For `CC1=C2CC[C@@](C)(O)C2[C@H]2OC(=O)[C@@H](CN(C)C)[C@@H]2CC1` (stereo partly shown) [ACT001, dimethylamino micheliolide], under setting [1], the “difference in pulmonary coefficient versus the normal group” value was “no significant difference” and the “pulmonary coefficient lower relative to the control group” value was determined as 0.47%. Further, the average lung weight (after 3 weeks of drug administration, normal group 0.4012 g, control group 0.5983 g) is reported as 0.4034 g. Further, the “average of pulmonary coefficient (lung wet mass/body weight*100%)” value (after 3 weeks of drug administration, normal group 0.81%, control group 1.32%) amounted to 0.85%. Also, the average body weight (after 3 weeks of drug administration, normal group 49.2352 g, control group 45.4575 g) is given as 47.576 g. In addition, the “blood supply in the lung tissue (lung tissue morphology under stereoscopic microscope)” value (second week after ACT001 administration, intragastric 0.1 mL of 10 mg/mL solution once every 2 days, started 3 weeks after modeling, compared with control group) is “significant improvement of blood supply in the lung tissue”. For the same compound, under setting [2], the “alveolar structures (lung tissue section, H.E. staining)” value is “restored to normal” and the “deposition in the lung interstitials (lung tissue section, H.E. staining)” value is recorded as “significantly reduced”. For the same compound, the “fibrosis degree of the lung (lung tissue section, H.E. staining)” value (second week after ACT001 administration, intragastric 0.1 mL once every 2 days, compared with control group) was “significant improvement for the fibrosis degree of the lung”. Besides, the “level of pulmonary fibrosis (lung tissue morphology and tissue section)” value (third week after ACT001 administration, compared with control group) is reported as “significantly reduced”.
